Source: patent publication US11992473B2, “Compositions and methods for diagnosis and treatment of conditions related to the quality of aging and longevity” (Epitracker, Inc., priority 2018, dated 2024)

Experiments:
Format in all cases: cell-based, human
[1] = test system: Venular endothelial cells, peripheral blood mononuclear cells; assay: BioMAP Diversity PLUS LPS system (Th1 type chronic inflammation, monocyte activation); settings: for Significant log10 reduction compared to nontreated controls: Secreted prostaglandin E2 (PGE2): LPS system; for secretion of prostaglandin E2 (PGE2): human cell system mimicking T-cell and monocyte driven chronic inflammation and cardiovascular diseases (FIG. 4)
Protocol: (§1) This study examined activities of small molecules discovered in dolphin serum that had protective profiles against diseases of aging which can impact quality of life and longevity. These molecules were tested across 12 human primary cell-based systems as part of DiscoverX's BioMAP Diversity Plus program. These systems are designed to model complex human tissue and disease biology of the vasculature, skin, lung, and inflammatory tissues. Quantitative measurements of biomarker activities across this broad panel, along with comparative analysis of biological activities of known bioactive agents were used to predict and compare the efficacy and function of the four compounds. Compounds were tested at four concentrations (740 nm and 2.2, 6.7 and 20 μM).
(§2) BioMAP panels consist of human primary cell-based systems designed to model different aspects of the human body in an in vitro format. The 12 systems in the Diversity PLUS panel allow test agent characterization in an unbiased way across a broad set of systems modeling various human disease states. BioMAP systems are constructed with one or more primary cell types from healthy human donors, with stimuli (such as cytokines or growth factors) added to capture relevant signaling networks that naturally occur in human tissue or pathological conditions. Vascular biology is modeled in both a Th1 (3C system) and a Th2 (4H system) inflammatory environment, as well as in a Th1 inflammatory state specific to arterial smooth muscle cells (CASM3C system). Additional systems recapitulate aspects of the systemic immune response including monocyte-driven Th1 inflammation (LPS system) or T cell stimulation (SAg system), chronic Th1 inflammation driven by macrophage activation (lMphg system) and the T cell-dependent activation of B cells that occurs in germinal centers (BT system). The BE3C system (Th1) and the BF4T system (Th2) represent airway inflammation of the lung, while the MyoF system models myofibroblast-lung tissue remodeling. Lastly, skin biology is addressed in the KF3CT system modeling Th1 cutaneous inflammation and the HDF3CGF system modeling wound healing.
(§3) Each test agent generates a signature BioMAP profile that is created from the changes in protein biomarker readouts within individual system environments. Biomarker readouts (7-17 per system) are selected for therapeutic and biological relevance, are predictive for disease outcomes or specific drug effects and are validated using agents with known mechanism of action (MoA). Each readout is measured quantitatively by immune-based methods that detect protein (e.g., ELISA) or functional assays that measure proliferation and viability. BioMAP readouts are diverse and include cell surface receptors, cytokines, chemokines, matrix molecules and enzymes.
(§4) The Diversity PLUS panel allows test agent characterization in an unbiased way across a broad set of systems modeling various human disease states. These systems are designed to model complex human tissue and disease biology of the vasculature, skin, lung, and inflammatory tissues.
(§5) BioMAP systems are constructed with one or more primary cell types from healthy human donors, with stimuli (such as cytokines or growth factors) added to capture relevant signaling networks that naturally occur in human tissue or pathological conditions. Vascular biology is modeled in both a Th1 (3C system) and a Th2 (4H system) inflammatory environment, as well as in a Th1 inflammatory state specific to arterial smooth muscle cells (CASM3C system). Additional systems recapitulate aspects of the systemic immune response including monocyte-driven Th1 inflammation (LPS system) or T cell stimulation (SAg system), chronic Th1 inflammation driven by macrophage activation (lMphg system) and the T cell-dependent activation of B cells that occurs in germinal centers (BT system).

[2] = test system: Venular endothelial cells, peripheral blood mononuclear cells; assay: BioMAP Diversity PLUS SAg system (T cell stimulation, Th1 type chronic inflammation); settings: human cell system mimicking T-cell driven chronic inflammation and autoimmune diseases; concentrations ranging from 740 nm to 6.7 μM (FIG. 2)
Protocol: as §1, §2
as §3, with “enzymes. In total, the Diversity PLUS panel contains 148 biomarker readouts that capture biological changes that occur within the physiological context of the particular BioMAP system. Specific BioMAP activities have been correlated to in vivo biology, and multiparameter BioMAP profiles have been used to distinguish compounds based on MoA and target selectivity across diverse physiological systems.” for “enzymes.”
(§6) The Diversity PLUS panel allows test agent characterization in an unbiased way across a broad set of systems modeling various human disease states. These systems are designed to model complex human tissue and disease biology of the vasculature, skin, lung, and inflammatory tissues. Quantitative measurements of 148 biomarker activities across this broad panel, along with comparative analysis of biological activities from known bioactive agents, were used to predict and compare the efficacy and function of each selected compound at four concentrations (740 nm and 2.2, 6.7 and 20 μM). […]

[3] = test system: Coronary artery smooth muscle cells; assay: BioMAP Diversity PLUS CASM3C system (Th1 type vascular inflammation); settings: for Significant log10 reduction compared to nontreated controls: Vascular cell adhesion molecule 1 (VCAM-1): CASM3C system
Protocol: as §1, §2, §3, §4, §5

Dermal fibroblasts = assay: BioMAP Diversity PLUS HDF3CGF system (wound healing and matrix/tissue remodeling)
Protocol: as §1, §2, §3, §4, §5

Lung fibroblasts = assay: BioMAP Diversity PLUS MyoF system (myofibroblast differentiation and tissue remodeling)
Protocol: as §1, §2
as §3, with “enzymes. In total, the Diversity PLUS panel contains 148 biomarker readouts that capture biological changes that occur within the physiological context of the particular BioMAP system. Specific BioMAP activities have been correlated to in vivo biology, and multiparameter BioMAP profiles have been used to distinguish compounds based on MoA and target selectivity across diverse physiological systems.” for “enzymes.”
as §6

[4] = test system: Peripheral blood mononuclear cells, B cells; assay: BioMAP Diversity PLUS BT system (T cell dependent B cell activation); settings: BT system
Protocol: as §1, §2, §3, §4, §5

[5] = test system: Bronchial epithelial cells, dermal fibroblasts; assay: BioMAP Diversity PLUS BF4T system (Th2 type lung inflammation)
Protocol: as §1, §2
as §3, with “enzymes. In total, the Diversity PLUS panel contains 148 biomarker readouts that capture biological changes that occur within the physiological context of the particular BioMAP system. Specific BioMAP activities have been correlated to in vivo biology, and multiparameter BioMAP profiles have been used to distinguish compounds based on MoA and target selectivity across diverse physiological systems.” for “enzymes.”
as §6

[6] = test system: Bronchial epithelial cells; assay: BioMAP Diversity PLUS BE3C system (Th1 type lung inflammation)
Protocol: as §1, §2
as §3, with “enzymes. In total, the Diversity PLUS panel contains 148 biomarker readouts that capture biological changes that occur within the physiological context of the particular BioMAP system. Specific BioMAP activities have been correlated to in vivo biology, and multiparameter BioMAP profiles have been used to distinguish compounds based on MoA and target selectivity across diverse physiological systems.” for “enzymes.”
as §6

[7] = test system: Macrophages, venular endothelial cells; assay: BioMAP Diversity PLUS lMphg system (Th1 type chronic inflammation, macrophage activation); settings: /Mphg system
Protocol: as §1, §2
as §3, with “enzymes. In total, the Diversity PLUS panel contains 148 biomarker readouts that capture biological changes that occur within the physiological context of the particular BioMAP system. Specific BioMAP activities have been correlated to in vivo biology, and multiparameter BioMAP profiles have been used to distinguish compounds based on MoA and target selectivity across diverse physiological systems.” for “enzymes.”
as §6

Compound: CS(=O)(=O)CC[C@H](N)C(=O)O [Methionine sulfone]
- Significant log10 reduction compared to nontreated controls: Secreted prostaglandin E2 (PGE2) ([1]; 0.7 μM): −0.12 log10
- Significant log10 reduction compared to nontreated controls: Secreted prostaglandin E2 (PGE2) ([1]; 2.2 μM): −0.08 log10
- secretion of prostaglandin E2 (PGE2) [1]: lowered
- T cell proliferation [2]: decreased
- Significant log10 reduction compared to nontreated controls: Vascular cell adhesion molecule 1 (VCAM-1) ([3]; 0.7 μM): −0.10 log10
- Significant log10 reduction compared to nontreated controls: Vascular cell adhesion molecule 1 (VCAM-1) ([3]; 2.2 μM): −0.09 log10
- Significant log10 reduction compared to nontreated controls: Monocyte chemoattractant protein 1 (MCP-1) (Dermal fibroblasts; HDF3CGF system, 6.7 μM): −0.24 log10
- decorin (Dermal fibroblasts; human cell system mimicking wound healing, remodeling, fibrosis and chronic inflammation (FIG. 7)): inhibitory activity
- Significant log10 reduction compared to nontreated controls: Decorin (Lung fibroblasts; 6.7 μM): −0.07 log10
- Significant log10 reduction compared to nontreated controls: Decorin (Lung fibroblasts; 20.0 μM): −0.11 log10

Compound: O=C(O)c1cc(O)c2cccc(O)c2n1 [Xanthurenate]
- Significant log10 reduction compared to nontreated controls: Secreted prostaglandin E2 (PGE2) ([1]; 6.7 μM): −0.16 log10
- Significant log10 reduction compared to nontreated controls: Secreted prostaglandin E2 (PGE2) ([1]; 20.0 μM): −0.09 log10
- secretion of prostaglandin E2 (PGE2) [1]: lowered
- Significant log10 reduction compared to nontreated controls: Secreted interleukin 6 (IL-6) ([4]; 20.0 μM): −0.13 log10
- Significant log10 reduction compared to nontreated controls: Secreted tumor necrosis factor alpha (TNFα) ([4]; 20.0 μM): −0.19 log10
- IL-6 ([3]; human cell system mimicking cardiovascular inflammation (FIG. 6)): lowered
- interleukin 8 (IL-8) (Dermal fibroblasts; human cell system mimicking wound healing, remodeling, fibrosis and chronic inflammation (FIG. 8)): inhibitory activity

Compound: lignoceroylcarnitine [Lignoceroylcarnitine (C24)]
- Significant log10 reduction compared to nontreated controls: B cell proliferation ([4]; 0.7 μM): −0.15 log10
- Significant log10 reduction compared to nontreated controls: B cell proliferation ([4]; 2.2 μM): −0.09 log10
- Significant log10 reduction compared to nontreated controls: Secreted tumor necrosis factor alpha (TNFα) ([4]; 2.2 μM): −0.10 log10
- Significant log10 reduction compared to nontreated controls: B cell proliferation ([4]; 6.7 μM): −0.09 log10
- Significant log10 reduction compared to nontreated controls: Secreted interleukin 2 (IL-2) ([4]; 6.7 μM): −0.11 log10
- Significant log10 reduction compared to nontreated controls: B cell proliferation ([4]; 20.0 μM): −0.07 log10
- Significant log10 reduction compared to nontreated controls: Secreted interleukin 6 (IL-6) ([4]; 20.0 μM): −0.13 log10
- Significant log10 reduction compared to nontreated controls: Secreted interleukin 17A (IL-17A) ([4]; 20.0 μM): −0.25 log10
- Significant log10 reduction compared to nontreated controls: Keratin 8/18 ([5]; 0.7 μM): −0.07 log10
- Significant log10 reduction compared to nontreated controls: Keratin 8/18 ([5]; 2.2 μM): −0.07 log10
- Significant log10 reduction compared to nontreated controls: Keratin 8/18 ([5]; 6.7 μM): −0.09 log10
- Significant log10 reduction compared to nontreated controls: Keratin 8/18 ([5]; 20.0 μM): −0.11 log10
- Significant log10 reduction compared to nontreated controls: Interferon-inducible T cell alpha chemoattractant (I-TAC)/CXCL11 ([6]; 0.7 μM): −0.05 log10
- Significant log10 reduction compared to nontreated controls: Interferon-inducible T cell alpha chemoattractant (I-TAC)/CXCL11 ([6]; 2.2 μM): −0.12 log10
- Significant log10 reduction compared to nontreated controls: Alpha smooth muscle actin (αSMA) (Lung fibroblasts; 0.7 μM): −0.08 log10
- Significant log10 reduction compared to nontreated controls: Alpha smooth muscle actin (αSMA) (Lung fibroblasts; 2.2 μM): −0.13 log10
- Significant log10 reduction compared to nontreated controls: Alpha smooth muscle actin (αSMA) (Lung fibroblasts; 6.7 μM): −0.18 log10
- Significant log10 reduction compared to nontreated controls: Alpha smooth muscle actin (αSMA) (Lung fibroblasts; 20.0 μM): −0.20 log10
- Significant log10 reduction compared to nontreated controls: Monocyte chemoattractant protein 1 (MCP-1) ([7]; 2.2 μM): −0.29 log10
- Significant log10 reduction compared to nontreated controls: Monocyte chemoattractant protein 1 (MCP-1) ([7]; 6.7 μM): −0.16 log10
- Significant log10 reduction compared to nontreated controls: Monocyte chemoattractant protein 1 (MCP-1) ([7]; 20.0 μM): −0.11 log10
